Results: PubChem BioAssay (NCI)
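Dose response: 5 concentrations. Exposure: 48 h. Format: 96-well plates. Endpoint: linear interpolation; highest concentration if not reached. GI50: concentration for 50% inhibition of growth. TGI denotes the concentration required for complete inhibition of growth.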

Experiments:
Experiment in all cases: DTP human tumour cell line panel, 48 h
SK-MEL-2 melanoma = test system: SK-MEL-2 melanoma
KM12 colon = test system: KM12 colon
SK-OV-3 ovarian = test system: SK-OV-3 ovarian
UACC-257 melanoma = test system: UACC-257 melanoma
HCT-116 colon = test system: HCT-116 colon
NCI-H23 lung = test system: NCI-H23 lung
OVCAR-5 ovarian = test system: OVCAR-5 ovarian
OVCAR-3 ovarian = test system: OVCAR-3 ovarian
SF-295 CNS = test system: SF-295 CNS
SK-MEL-28 melanoma = test system: SK-MEL-28 melanoma
OVCAR-4 ovarian = test system: OVCAR-4 ovarian
OVCAR-8 ovarian = test system: OVCAR-8 ovarian
SW-620 colon = test system: SW-620 colon

SMILES	TGI (SK-MEL-2 melanoma) [µM]	TGI (KM12 colon) [µM]	TGI (SK-OV-3 ovarian) [µM]	TGI (UACC-257 melanoma) [µM]	TGI (HCT-116 colon) [µM]	TGI (NCI-H23 lung) [µM]	TGI (OVCAR-5 ovarian) [µM]	TGI (OVCAR-3 ovarian) [µM]	TGI (SF-295 CNS) [µM]	TGI (SK-MEL-28 melanoma) [µM]	TGI (OVCAR-4 ovarian) [µM]	TGI (OVCAR-8 ovarian) [µM]	TGI (SW-620 colon) [µM]	GI50 (SK-MEL-2 melanoma) [µM]	GI50 (KM12 colon) [µM]	GI50 (SK-OV-3 ovarian) [µM]	GI50 (HCT-116 colon) [µM]	GI50 (OVCAR-8 ovarian) [µM]	GI50 (SW-620 colon) [µM]
CC[C@]12C=CCN3CC[C@@]4(c5cc(Br)c(OC)cc5N(C)[C@H]4[C@@](O)(C(=O)N[C@@H](Cc4ccc(O)cc4)C(=O)OC)[C@@H]1O)[C@@H]32	60.1	38.5	> 100	33.9	> 100	> 100	> 100	89.7	38.7	> 100	40	> 100	> 100						
C[C@]12CC[C@H](O)CC1=CC[C@@H]1[C@@H]2CC[C@]2(C)C(=N/O)/C(=C/c3ccc([N+](=O)[O-])cc3)C[C@@H]12	15.5	60.1	22.5	16.5	15.7	25.6	21.5	5.06	10.7	22.8	> 100	9.75	> 100						
O=C(c1cc2c(c3ccccc13)NCCN=C2C(F)(F)F)C(F)(F)F	44.1	> 100	93.2	42.7	> 100	> 100	> 100	80.9	50.1	47.8	> 100	> 100	> 100						
CC(=O)NNC(=O)C1CCCCN1 (stereo not given)	> 100	> 100	> 100	> 100	> 100	> 100	> 100	> 100	> 100	> 100	> 100	> 100	> 100						
O=C1C(Cl)C(c2cc3cc(Br)ccc3nc2Cl)N1c1ccc(Cl)cc1 (stereo not given)	10.4	> 25	> 25	12.6	12.5	17.2	> 25	13.8	> 25	> 25	9.4	> 25	> 25						
O=C(COc1ccc(Cl)c(Cl)c1)N(Cc1ccccc1)Cc1ccc[n+](Cc2ccc(Cl)cc2S(=O)(=O)F)c1	70.1	56.6	> 100	> 100	> 100	> 100	> 100	> 100	> 100	> 100	> 100	> 100	> 100						
CC(C)(C)OC(=O)NC1CCC(C(C)(C)C)CC1 (stereo not given)	71.3	> 100	> 100	> 61.8	> 100	> 100	> 100	> 100	> 55.3	> 100	> 100	> 100	> 100						
Br/C(=N\Nc1nn[nH]n1)c1ccncc1	> 100	> 100	> 100	> 100	> 100	> 100	> 100	> 100	> 100	> 100	> 100	> 100	> 100						
CCCC(=O)O.CCCC(=O)O.CCCC(=O)O.CCCC(=O)O.[Rh].[Rh]	0.896	0.366	0.829		0.0433							0.428	0.0405	0.285	0.172	0.278	0.0198	0.0435	0.0188
c1ccc(C[N+]23CN4CN(CN(C4)C2)C3)cc1	34.6	> 100	> 100	> 100	85.3	36.6	> 100	> 100	> 100	60.9	> 100	81.8	69.5						
O=C(Oc1ccc(Cl)cc1[N+](=O)[O-])c1ccccc1	> 100	> 100	> 100	> 100	> 100	> 100	> 100	> 100	> 100	> 100	> 100	> 100	> 100						
O=C1OC2CC=CC1C2 (stereo not given)	> 100	> 100	> 100	> 100	> 100	> 100	> 100	> 100	> 100	> 100	> 100	> 100	> 100						
Cc1cc(C)nc(SCCc2cccc[n+]2C)n1		> 100	> 100	> 100	> 100	> 100	> 100	> 100	> 100	> 100	> 100	> 100	> 100						
COc1cc(S(=O)(=O)Nc2nc(-c3ccc(N4C(=O)/C(=C/c5ccccc5[N+](=O)[O-])N=C4c4ccccc4)cc3)cs2)ccc1Cl	> 100	> 100	> 100	> 100	> 100	> 100	> 100	> 100	> 100	> 100	> 100	> 100	> 100						
COc1c(OC/C=C(\C)CCC=C(C)C)ccc2ccc(=O)oc12	> 100	> 100	> 100	> 100	> 100	> 100	> 100	> 100	> 100	> 100	> 100	> 100	> 100						
Cl/C(=C\C=Nc1ccc(I)cc1)c1ccc2ccccc2c1	56.1	33.5	74.4	33.8	33.2	31	> 64.6	30.9	51.3	46.2	46.5	41.3	68.6						
C=C1C(=O)OC2CC1CCC1(C)OC1CCC(C)=CCCC2(C)O (stereo not given)	14.2	12.9	36.7	13.9	8.7	7.25	19.1	9.3	33.8	10.7	11.9	7.78	3.82						
Cn1c2c3ccc(Cl)cc3nc-2c(Cl)c2ccccc21	48.2	53.9	> 100	37.4	4.99	36.1	38.6	29.7	36.6	43.9	35.5	> 100	63.1						
C=CCNS(=O)(=O)c1ncnc2nc[nH]c12	> 100	> 100	> 100	> 100	> 100	> 100	> 100	> 100	> 100	> 100	> 100	> 100	> 100						
O=C1OCc2cc3cc4c(cc3c(-c3ccc5c(c3)OCO5)c21)OCO4 (tested in a mixture with another compound)	68	> 100	48.1	> 100	13.7	> 100	96.8	21.4	31.4	> 100	> 100	> 100	> 100						
COc1cc(/C=C/C(=O)CC(=O)/C=C/c2ccc(O)c(OC)c2)ccc1O	40.3	19.7	21	23.9	9.36	31.8	35.3	24.7	20.7	15.9	36.6	28.4	21.2						
O=C(Nc1ccc(Cl)c(Cl)c1)N1N=C2c3ccccc3CCC2C1c1ccc(Cl)cc1 (stereo not given)	> 100	> 100	> 100	> 100	> 100	> 100	> 100	> 100	> 100	> 100	> 100	> 100	> 100						
C=CCSSCC=C	> 100	> 100	> 100	> 100	> 100	> 95.9	> 100	> 100	> 100	> 100	> 100	> 74.4	> 100						
COc1ccc(NC(=S)N/N=C(\C)c2nc3ncccc3[nH]2)cc1	> 100	> 100	> 100	> 100	24.8	> 100	> 100	6.9	> 100	> 100	> 100	63.3	> 100						
